The text below walks through data of patent US4593090A, “Novel nitrosourea compounds, method for preparing same, and pharmaceutical composition containing same” (Gogo Kimura, priority 1981, dated 1986).

For orientation: LD50 means the dose expected to kill half of the subjects tested. The low end stands for a more toxic substance, the high end for a less toxic substance.

One data set has as its system Leukemia L1210. In words: Activity against Leukemia L1210, intraperitoneal, increase in life span of mice. The following applies: for ED (maximum ILS) / ED30: Mus musculus, L1210, ip, ip once a day for 5 successive days; for ED (maximum ILS): daily dosage giving maximum increase of life span, read-out: O.D. (optimum dosage); for ED30: daily dosage increasing average survival days by 30%, read-out: ILS30; for Survivors after 60 days / Max. ILS % / Therapeutic ratio TR: ip; for Survivors after 60 days: 6-membered group; for Max. ILS %: 60-day observation, versus control; for Therapeutic ratio TR: O.D./ILS30. It is filed as in vivo, female mice (BDF1 family). On the procedure: Tests were conducted in accordance with the method for measuring antitumor activity of National Cancer Center Tokyo (A, Hoshi et al, Farumashia 9 464 (1973)). Test compounds were each intraperitoneally (referred to as ip) or orally (referred to as op) administered once a day for 5 successive days to a 6-membered group of femal mice (BDF1 family, each weighing 20 to 23 g) 24 hours after 1×10^5 cells of Leukemia L1210 have been implantated into the abdominal cavities of the mice, and the effect was evaluated by comparing the survival days of treated groups with those of an untreated group of mice (control group) in 60-day observation. An increase percentage of life span (ILS%) was calculated from said average survival days compared with those of the control group. Further, therapeutic ratio (O.D./ILD30, referred to as T.R.) of each tested compound was calculated from the daily dosage of the compound necessary to increase said average survival days by 30% as compared with the control group (this dosage is referred to as ILS 30) and the daily dosage giving a maximum increase of life span to mice implantated with L1210 cells, namely an optimum dosage (referred to as O.D.). The results of five successive days intraperitoneal administrations of test compounds were shown in Tables I to III, and those of five successive oral administrations in Table IV.

A short description of data set [1]: Acute toxicity (LD50, Behrens-Karber method). It is filed as in vivo, ICR mice. As to conditions: mouse, in vivo, ip, mortality during 30 days. On the procedure: Test compounds, dissolved or suspended in 0.5% aqueous CMC, were each intraperitoneally administered to ICR mice in a dose of 0.1 ml per 10 g body weight. LD50 (mg/kg) value of each test compound was calculated from the mortality of mice during 30 days by the Behrens-Karber method.

Turning to `O=NN(CCCl)C(=O)N(CCC1CCCC1)C[C@H]1O[C@H](OC2CCCCC2)[C@H](O)[C@@H](O)[C@@H]1O` [Compound 45, 3-(2-cyclopentylethyl)-3-(cyclohexyl α-D-glucopyranose-6-yl)-1-(2-chloroethyl)-1-nitrosourea], in the data set with Leukemia L1210, the ED (maximum ILS) worked out at 180 mg/kg, the ED30 is 4.22 mg/kg, the “Survivors after 60 days” value is on record as 5/6 and the “Max. ILS %” value is > 625%. Further, the “Therapeutic ratio TR” value in the data set on Leukemia L1210 worked out at 42.7. The compound further displayed an LD50 at 720 h in data set [1] of 560 mg/kg.
For `O=NN(CCCl)C(=O)N(Cc1ccccc1)C[C@H]1O[C@H](OC2CCCCC2)[C@H](O)[C@@H](O)[C@@H]1O` [Compound 46, 3-benzyl-3-(cyclohexyl α-D-glucopyranose-6-yl)-1-(2-chloroethyl)-1-nitrosourea], in the data set with Leukemia L1210, the ED (maximum ILS) turned out to be 150 mg/kg, the ED30 was 3.9 mg/kg, the “Survivors after 60 days” value is 4/6 and the “Max. ILS %” value is reported as > 425%. Also, the “Therapeutic ratio TR” value in the data set on Leukemia L1210 was 38.5. In data set [1], this compound displayed an LD50 at 720 h of 510 mg/kg.
Turning to `Cc1ccc(CN(C[C@H]2O[C@H](OC3CCCCC3)[C@H](O)[C@@H](O)[C@@H]2O)C(=O)N(CCCl)N=O)cc1` [Compound 47, 3-(p-methylbenzyl)-3-(cyclohexyl α-D-glucopyranose-6-yl)-1-(2-chloroethyl)-1-nitrosourea], in the data set on Leukemia L1210, the ED (maximum ILS) came to 170 mg/kg, the ED30 is 4.97 mg/kg, the “Survivors after 60 days” value is 4/6 and the “Max. ILS %” value is reported as > 440%. Moreover, the “Therapeutic ratio TR” value in the data set with Leukemia L1210 was found to be 34.2. The compound also yielded an LD50 at 720 h in data set [1] of 545 mg/kg.
On to `COc1ccc(CN(C[C@H]2O[C@H](OC3CCCCC3)[C@H](O)[C@@H](O)[C@@H]2O)C(=O)N(CCCl)N=O)cc1` [Compound 48, 3-(p-methoxybenzyl)-3-(cyclohexyl α-D-glucopyranose-6-yl)-1-(2-chloroethyl)-1-nitrosourea], for which, in the data set with Leukemia L1210, the ED (maximum ILS) was determined as 170 mg/kg, the ED30 was found to be 4.64 mg/kg, the “Survivors after 60 days” value is recorded as 4/6 and the “Max. ILS %” value is given as > 445%. In addition, the “Therapeutic ratio TR” value in the data set on Leukemia L1210 is listed as 36.6. This compound also yielded an LD50 at 720 h in data set [1] of 530 mg/kg.
Turning to `COc1cccc(CN(C[C@H]2O[C@H](OC3CCCCC3)[C@H](O)[C@@H](O)[C@@H]2O)C(=O)N(CCCl)N=O)c1OC` [Compound 49, 3-(2,3-dimethoxybenzyl)-3-(cyclohexyl α-D-glucopyranose)-6-yl)-1-(2-chloroethyl-1-nitrosourea], in the data set on Leukemia L1210, the ED (maximum ILS) stood at 170 mg/kg, the ED30 worked out at 4.74 mg/kg, the “Survivors after 60 days” value is 4/6 and the “Max. ILS %” value was > 420%. In addition, in the data set with Leukemia L1210, the “Therapeutic ratio TR” value worked out at 35.9. Further, the LD50 at 720 h in data set [1] turned out to be 560 mg/kg.
`COc1ccc(CO[C@H]2O[C@H](CN(CC(C)C)C(=O)N(CCCl)N=O)[C@@H](O)[C@H](O)[C@H]2O)cc1` [Compound 51, 3-isobutyl-3-(p-methoxybenzyl α-D-glucopyranose-6-yl)-1-(2-chloroethyl)-1-nitrosourea]: in the data set on Leukemia L1210, the ED (maximum ILS) was determined as 120 mg/kg, the ED30 was 3.3 mg/kg, the “Survivors after 60 days” value is listed as 4/6 and the “Max. ILS %” value is reported as > 430%. In the data set with Leukemia L1210, the “Therapeutic ratio TR” value was 36.4. Besides, in data set [1], the LD50 at 720 h is 350 mg/kg.
As to `COc1cc(CO[C@H]2O[C@H](CN(CC(C)C)C(=O)N(CCCl)N=O)[C@@H](O)[C@H](O)[C@H]2O)cc(OC)c1OC` [Compound 53, 3-isobutyl-3-(3,4,5-trimethoxybenzyl α-D-glucopyranose-6-yl)-1-(2-chloroethyl)-1-nitrosourea], in the data set on Leukemia L1210, the ED (maximum ILS) amounted to 120 mg/kg, the ED30 turned out to be 3.95 mg/kg, the “Survivors after 60 days” value is given as 4/6 and the “Max. ILS %” value is > 425%. For the same compound, the “Therapeutic ratio TR” value in the data set with Leukemia L1210 worked out at 30.4. The same compound registered an LD50 at 720 h in data set [1] of 350 mg/kg.
On to `CC(C)CN(C[C@H]1O[C@H](OCc2ccccc2)[C@H](O)[C@@H](O)[C@@H]1O)C(=O)N(CCCl)N=O` [Compound 54, 3-isobutyl-3-(benzyl α-D-glucopyranose-6-yl)-1-(2-chloroethyl)-1-nitrosourea], for which, in the data set on Leukemia L1210, the ED (maximum ILS) was 150 mg/kg, the ED30 was 3.93 mg/kg, the “Survivors after 60 days” value is 4/6 and the “Max. ILS %” value was > 450%. In addition, in the data set with Leukemia L1210, the “Therapeutic ratio TR” value came out at 38.2. The same compound registered an LD50 at 720 h in data set [1] of 450 mg/kg.
For `CCCCO[C@H]1O[C@H](CO)[C@@H](O)[C@H](O)[C@H]1N(CCCC)C(=O)N(CCCl)N=O` [Compound 55, 3-n-butyl-3-(n-butyl α-D-glucopyranose-2-yl)-1-(2-chloroethyl)-1-nitrosourea], in the data set on Leukemia L1210, the ED (maximum ILS) was determined as 180 mg/kg, the ED30 amounted to 6.05 mg/kg, the “Survivors after 60 days” value is 3/6 and the “Max. ILS %” value is listed as > 350%. Also, the “Therapeutic ratio TR” value with Leukemia L1210 is 29.8. Moreover, in data set [1], the LD50 at 720 h was found to be 465 mg/kg.
On to `C=C(C)CN(C(=O)N(CCCl)N=O)[C@H]1[C@@H](OCCCC)O[C@H](CO)[C@@H](O)[C@@H]1O` [Compound 56, 3-(2-methyl-2-propenyl)-3-(n-butyl α-D-glucopyranose-2-yl)-1-(2-chloroethyl)-1-nitrosourea], for which, in the data set on Leukemia L1210, the ED (maximum ILS) was found to be 170 mg/kg, the ED30 came out at 5.38 mg/kg, the “Survivors after 60 days” value is on record as 3/6 and the “Max. ILS %” value is recorded as > 360%. Moreover, in the data set on Leukemia L1210, the “Therapeutic ratio TR” value was determined as 31.6. Moreover, the LD50 at 720 h in data set [1] is 460 mg/kg.
With `CCCCO[C@H]1O[C@H](CO)[C@@H](O)[C@H](O)[C@H]1N(CCOCCO)C(=O)N(CCCl)N=O` [Compound 58, 3-[2-(2-hydroxyethoxy)ethyl]-3-(n-butyl α-D-glucopyranose-2-yl)-1-(2-chloroethyl)-1-nitrosourea], in the data set with Leukemia L1210, the ED (maximum ILS) was found to be 190 mg/kg, the ED30 is 4.2 mg/kg, the “Survivors after 60 days” value is 4/6 and the “Max. ILS %” value is given as > 422%. Besides, the “Therapeutic ratio TR” value in the data set with Leukemia L1210 came out at 45.2. For the same compound, the LD50 at 720 h in data set [1] amounted to 585 mg/kg.
`CCC(C)O[C@H]1O[C@H](CO)[C@@H](O)[C@H](O)[C@H]1N(CC(C)C)C(=O)N(CCCl)N=O` (stereo partly drawn) [Compound 59, 3-isobutyl-3-(sec-butyl α-D-glucopyranose-2-yl)-1-(2-chloroethyl)-1-nitrosourea]: in the data set with Leukemia L1210, the ED (maximum ILS) was 200 mg/kg, the ED30 is 5.8 mg/kg, the “Survivors after 60 days” value is listed as 3/6 and the “Max. ILS %” value is listed as > 348%. Further, the “Therapeutic ratio TR” value in the data set on Leukemia L1210 is 34.5. In addition, the LD50 at 720 h in data set [1] was determined as 605 mg/kg.
Consider `C=C(C)CN(C(=O)N(CCCl)N=O)[C@H]1[C@@H](OC(C)CC)O[C@H](CO)[C@@H](O)[C@@H]1O` (stereo partly drawn) [Compound 60, 3-(2-methyl-2-propenyl)-3-(sec-butyl α -D-glucopyranose-2-yl)-1-(2-chloroethyl)-1-nitrosourea], for which, in the data set on Leukemia L1210, the ED (maximum ILS) turned out to be 200 mg/kg, the ED30 came to 7.15 mg/kg, the “Survivors after 60 days” value was 3/6 and the “Max. ILS %” value was > 345%. Further, the “Therapeutic ratio TR” value in the data set with Leukemia L1210 was 28.0. In addition, the 50% lethal dose (LD50) at 720 h in data set [1] came out at 580 mg/kg.
Consider `CC(C)CO[C@H]1O[C@H](CO)[C@@H](O)[C@H](O)[C@H]1N(CC(C)C)C(=O)N(CCCl)N=O` [Compound 61, 3-isobutyl-3-(isobutyl α-D-glucopyranose-2-yl)-1-(2-chloroethyl)-1-nitrosourea], for which, in the data set on Leukemia L1210, the ED (maximum ILS) came out at 190 mg/kg, the ED30 was 5.86 mg/kg, the “Survivors after 60 days” value is listed as 3/6 and the “Max. ILS %” value is recorded as > 340%. Further, the “Therapeutic ratio TR” value in the data set with Leukemia L1210 is 32.4. For the same compound, the LD50 at 720 h in data set [1] was 595 mg/kg.
For the compound `CC(C)CO[C@H]1O[C@H](CO)[C@@H](O)[C@H](O)[C@H]1N(Cc1ccccc1)C(=O)N(CCCl)N=O` [Compound 62, 3-benzyl-3-(isobutyl α-D-glucopyranose-2-yl)-1-(2-chloroethyl)-1-nitrosourea], in the data set on Leukemia L1210, the ED (maximum ILS) is 200 mg/kg, the ED30 came to 7.8 mg/kg, the “Survivors after 60 days” value was 3/6 and the “Max. ILS %” value is > 340%. The “Therapeutic ratio TR” value in the data set with Leukemia L1210 is 25.6. Besides, in data set [1], the LD50 at 720 h turned out to be 565 mg/kg.
`O=NN(CCCl)C(=O)N(CCCCO)C1C(OC2CCCCC2)OC(CO)C(O)C1O` [Compound 66, 3-(4-hydroxy-n-butyl)-3-(cyclohexyl α-D-glucopyranose-2-yl)-1-(2-chloroethyl)-1-nitrosourea]: in the data set with Leukemia L1210, the ED (maximum ILS) was 200 mg/kg, the ED30 worked out at 8.55 mg/kg, the “Survivors after 60 days” value is 3/6 and the “Max. ILS %” value is > 345%. In addition, the “Therapeutic ratio TR” value in the data set on Leukemia L1210 was 23.4. Further, the LD50 at 720 h in data set [1] worked out at 620 mg/kg.
`O=NN(CCCl)C(=O)N(CCC1CCCC1)C1C(OC2CCCCC2)OC(CO)C(O)C1O` [Compound 67, 3-(2-cyclopentylethyl)-3-(cyclohexyl α-D-glucopyranose-2-yl)-1-(2-chloroethyl)-1-nitrosourea]: in the data set with Leukemia L1210, the ED (maximum ILS) was found to be 200 mg/kg, the ED30 was determined as 7.5 mg/kg, the “Survivors after 60 days” value is recorded as 3/6 and the “Max. ILS %” value was > 355%. Also, the “Therapeutic ratio TR” value in the data set on Leukemia L1210 turned out to be 28.6. In addition, in data set [1], the 50% lethal dose (LD50) at 720 h turned out to be 650 mg/kg.
